System: hypertensive subjects
Assay: Seated automated office blood pressure (AOBP) in randomized, placebo-controlled, dose-ranging study
Type: in vivo, human
Design: Difference from placebo in change in blood pressure: unit not given here
Procedure: A randomized, double-blinded, placebo-controlled, dose-ranging, multicenter study was conducted to evaluate the effect of orally administered Compound A HBr on blood pressure for the treatment of hypertension in male and female subjects ≥18 years of age.
The study consists of two parts. For enrollment into Part 1 of the study, a subject's value of plasma renin activity (PRA) must be ≤1 ng/mL/h based on morning measurement. If the value of PRA >1 ng/mL/h based on morning measurement, then subjects may be eligible to enter Part 2 of the study.
For Part 1, 163 enrolled subjects ≥18 years of age were randomized into 6 equal treatment groups (1:1:1:1:1:1) to 12.5 mg BID, 25 mg BID, 12.5 mg QD, 50 mg QD, 100 mg QD, or placebo. After a review of interim clinical data, the 2 lowest dose levels (12.5 mg QD and 12.5 mg BID) were stopped for future randomization due to a lack of consistent meaningful reduction of blood pressure, but the patients randomized to that point remained in the study through completion. Thus, after the review of interim clinical data, subjects were randomized into 4 equal treatment groups (1:1:1:1) to 25 mg BID, 50 mg QD, 100 mg QD, or placebo.
For Part 2, 36 enrolled subjects ≥18 years of age were randomized (5:1) to either 100 mg QD Compound A HBr or placebo such that the Compound A HBr treatment group consisted of approximately 30 subjects and the placebo treatment group will consist of approximately 6 subjects.
Subjects orally administered the assigned study drug (Compound A HBr or placebo) according to the assigned dosing regimen for 8 weeks beginning on Study Day 1. All subjects in Part 1 (regardless of dosing group) received BID dosing to preserve the integrity of the blind; active drug is administered as the morning dose for all QD dose groups. Subjects returned to the research facility or were seen by the clinical investigator or approved home health care professional at the end of Study Weeks 1, 2, 3, 4, 5, 6, 7, and 8 (±2 days) for protocol-defined efficacy and safety assessments and procedures, assessment of adverse events (AEs), and confirmation of compliance with study drug usage. Subjects also completed a telephone visit and blood pressure (BP) check at home approximately 3 days post last dose of study drug. Subjects attended up to 14 full clinic visits, including a pre-Screening visit, a Screening/start of Placebo Run-in visit, a second visit during Placebo Run-in, a clinic visit to initiate the ABPM procedure, a Randomization visit, 8 weekly visits during double-blind treatment, and an end-of-study visit scheduled 4 weeks after the last study treatment for final efficacy and safety assessments.
An automated oscillometric sphygmomanometer device was used to measure the subjects' systolic and diastolic blood pressure in office after approximately 5 minutes of rest in the seated position.
The primary endpoint is the change in office-measured (mean of last 2 of 5 unattended measurements using an automated oscillometric sphygmomanometer device after approximately 5 minutes of rest in the seated position) systolic blood pressure (SBP) from baseline to the end of Study Week 8.
Secondary endpoints of this study were: • (a) Change in 24-hour ambulatory blood pressure monitoring (ABPM) parameters (systolic and diastolic) from baseline to the end of Study Week 7. • (b) Change in office-measured SBP from baseline to the end of Study Weeks 1, 2, 3, 4, 5, 6, and 7. • (c) Change in office-measured diastolic blood pressure (DBP) from baseline to the end of Study Weeks 1, 2, 3, 4, 5, 6, 7, and 8. • (d) Proportion of subjects who achieve office-measured BP of ≤130/80 mm Hg by the end of Study Week 8.

[1] = 12.5 mg BID, Week 1, Part 1, FAS
[2] = 12.5 mg BID, Week 2, Part 1, FAS
[3] = 12.5 mg BID, Week 3, Part 1, FAS
[4] = 12.5 mg BID, Week 4, Part 1, FAS
[5] = 12.5 mg BID, Week 5, Part 1, FAS
[6] = 12.5 mg BID, Week 6, Part 1, FAS
[7] = 12.5 mg BID, Week 7, Part 1, FAS
[8] = 12.5 mg BID, Week 8, Part 1, FAS

## CC(=O)N[C@H]1CC[C@H](NC(=O)CN2CCN(c3nncc(-c4ccc(C)cc4)n3)CC2)CC1 [Compound A HBr]
12.5 mg BID, BMI 25-30
  Difference from placebo in change in blood pressure: −3.5
12.5 mg BID, BMI >30
  Difference from placebo in change in blood pressure: −10.1
12.5 mg BID, Thiazide No
  Difference from placebo in change in blood pressure: −1.4
12.5 mg BID, Thiazide Yes
  Difference from placebo in change in blood pressure: −10.6
[1]
  Seated AOBP DBP change from baseline (CFB), Mean (SD): −5.95 (6.17) mmHg
  Seated AOBP DBP, Mean (SD): 75.59 (8.32) mmHg
  Seated AOBP SBP change from baseline (CFB), Mean (SD): −8.89 (11.51) mmHg
  Seated AOBP SBP, Mean (SD): 135.68 (14.48) mmHg
[2]
  Seated AOBP DBP change from baseline (CFB), Mean (SD): −7.32 (9.14) mmHg
  Seated AOBP DBP, Mean (SD): 74.23 (10.15) mmHg
  Seated AOBP SBP change from baseline (CFB), Mean (SD): −11.98 (13.02) mmHg
  Seated AOBP SBP, Mean (SD): 132.59 (14.70) mmHg
[3]
  Seated AOBP DBP change from baseline (CFB), Mean (SD): −0.93 (7.51) mmHg
  Seated AOBP DBP, Mean (SD): 79.95 (9.17) mmHg
  Seated AOBP SBP change from baseline (CFB), Mean (SD): −5.80 (9.60) mmHg
  Seated AOBP SBP, Mean (SD): 137.70 (15.37) mmHg
[4]
  LSM Δ with Placebo, seated AOBP DBP (MMRM): −4.48 mmHg
  Modelled (MMRM) LSM (SEM) change from baseline, seated AOBP DBP: −5.02 (1.67) mmHg
  Seated AOBP DBP change from baseline (CFB), Mean (SD): −4.18 (10.21) mmHg
  Seated AOBP DBP, Mean (SD): 75.79 (10.69) mmHg
  Seated AOBP SBP change from baseline (CFB), Mean (SD): −10.71 (12.27) mmHg
  Seated AOBP SBP, Mean (SD): 132.95 (15.79) mmHg
[5]
  Seated AOBP DBP change from baseline (CFB), Mean (SD): −7.00 (7.81) mmHg
  Seated AOBP DBP, Mean (SD): 73.50 (10.13) mmHg
  Seated AOBP SBP change from baseline (CFB), Mean (SD): −12.53 (13.34) mmHg
  Seated AOBP SBP, Mean (SD): 131.44 (13.13) mmHg
[6]
  Seated AOBP DBP change from baseline (CFB), Mean (SD): −6.47 (6.39) mmHg
  Seated AOBP DBP, Mean (SD): 74.95 (10.29) mmHg
  Seated AOBP SBP change from baseline (CFB), Mean (SD): −14.00 (14.80) mmHg
  Seated AOBP SBP, Mean (SD): 129.79 (15.24) mmHg
[7]
  Seated AOBP DBP change from baseline (CFB), Mean (SD): −5.76 (7.62) mmHg
  Seated AOBP DBP, Mean (SD): 74.21 (9.64) mmHg
  Seated AOBP SBP change from baseline (CFB), Mean (SD): −11.76 (13.06) mmHg
  Seated AOBP SBP, Mean (SD): 131.89 (11.93) mmHg
[8]
  LSM Δ from Placebo, change from baseline in seated AOBP SBP (MMRM): −7.2 mmHg
  LSM Δ with Placebo, seated AOBP DBP (MMRM): −3.84 mmHg
  Modelled (MMRM) LSM (SEM) change from baseline, seated AOBP DBP: −5.47 (2.02) mmHg
  Modelled (MMRM) LSM (SEM) change from baseline, seated AOBP SBP: −11.30 (3.15) mmHg
  Seated AOBP DBP change from baseline (CFB), Mean (SD): −5.84 (8.78) mmHg
  Seated AOBP DBP, Mean (SD): 75.21 (10.07) mmHg
  Seated AOBP SBP change from baseline (CFB), Mean (SD): −13.79 (17.70) mmHg
  Seated AOBP SBP, Mean (SD): 131.89 (12.93) mmHg
  Subjects with seated AOBP SBP/DBP ≤130/80 mmHg: No: 15 (68.2) n (%)
  Subjects with seated AOBP SBP/DBP ≤130/80 mmHg: Yes: 7 (31.8) n (%)
12.5 mg QD, BMI 25-30
  Difference from placebo in change in blood pressure: −.14

From patent publication US20260053811A1, “METHODS OF TREATING HYPERTENSION IN OBESE SUBJECTS” (Mineralys Therapeutics, Inc., priority 2022, published 2026)
